Test system: IL-1 alpha biosynthesis in human skin cells (HaCaT keratinocytes)
Experiment: Anti-interleukin-1alpha assay: IL-1 alpha biosynthesis in A23187-stimulated HaCaT keratinocytes, ELISA of cell lysate
Assay type: cell-based
Conditions: vs stimulated control (0.2 μM A23187, 6 h)
Procedure: Since interleukin-1 alpha (IL-1 alpha) is a central inflammatory mediator in the skin, the inhibiting effect of the blackberry leaf extract on IL-1 alpha biosynthesis in human skin cells (HaCaT keratinocytes) was investigated. The cells are disseminated in a 96-well microtitre plate (MTP) on the previous day. On the day of the experiment, the test substance solutions are applied in medium in three different concentrations as a triple determination and incubated for 60 min at 37° C. and 5% CO2. Cellular IL-1 alpha biosynthesis is then stimulated by the addition of 0.2 μM A23187 calcium ionophore and the solutions are incubated for a further 6 h. The supernatant is drawn off and the cells undergo lysis through the addition of 1% Triton X 100. The IL-1 alpha in the cell lysate is quantified in an ELISA (human IL-1 alpha ELISA kit, EH2IL1A, Endogen).
The results set out below were obtained from two independent experiments. IL-1 alpha inhibition was calculated in comparison to the stimulated control.

C[C@@H]1C[C@H]2[C@@H]3CCC4=CC(=O)C=C[C@]4(C)[C@@]3(F)[C@@H](O)C[C@]2(C)[C@@]1(O)C(=O)CO [Dexamethasone]
inhibition at 0.01 µM (0.01 μM dexamethasone): 28.8%
inhibition at 0.1 µM (0.1 μM dexamethasone): 37.7%
inhibition at 1 µM (1 μM dexamethasone): 44.7%

From US8354128B2, “Blackberry leaf extract as an active ingredient against skin irritations and inflammations” (Symrise AG, priority 2005, dated 2013)
